Results reported in PubChem BioAssay AID248 (DTP/NCI, 2004).
Values joined by “and” are separate entries in the source; they are usually repeats but may differ in a detail not shown here. Identical values can stand only once. Inconclusive results and toxic doses are left out.

Tested on: L1210 leukemia ip in BDF1 mice, survival T/C
Experiment: NCI In Vivo Anticancer Drug Screen. Data for tumor model L1210 Leukemia (intraperitoneal) in B6D2F1 (BDF1) mice
Settings: endpoint: mean survival time, higher = longer survival
Method in brief: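 Each compound was tested against a transplantable tumor grown in mice. The endpoint was survival, with treated animals benchmarked against vehicle controls as a simple ratio.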

[1] = dose: 100.0 mg/kg/injection, schedule: Q01DX009 (ip), vehicle: Klucel (hydroxypropylcellulose) (HPC)
[2] = dose: 200.0 mg/kg/injection, schedule: Q01DX009 (ip), vehicle: Klucel (hydroxypropylcellulose) (HPC)
[3] = dose: 400.0 mg/kg/injection, schedule: Q01DX009 (ip), vehicle: Klucel (hydroxypropylcellulose) (HPC)
[4] = dose: 200.0 mg/kg/injection, schedule: Q01DX001 (ip), vehicle: saline
[5] = dose: 400.0 mg/kg/injection, schedule: Q01DX001 (ip), vehicle: saline
[6] = dose: 25.0 mg/kg/injection, schedule: Q04DX003 (ip), vehicle: saline
[7] = dose: 50.0 mg/kg/injection, schedule: Q04DX003 (ip), vehicle: saline
[8] = dose: 100.0 mg/kg/injection, schedule: Q01DX001 (ip), vehicle: saline

With CC1(C)N=C(N)N=C(N)N1c1ccc2ccccc2c1 the T/C (dose: 5.0 mg/kg/injection, schedule: Q01DX001 (ip), vehicle: other) was 105 % of control, the T/C (dose: 10.0 mg/kg/injection, schedule: Q01DX001 (ip), vehicle: other) was 102 % of control and the T/C (dose: 20.0 mg/kg/injection, schedule: Q01DX001 (ip), vehicle: other) was 96 % of control. The T/C (dose: 25.0 mg/kg/injection, schedule: Q01DX015 (ip), vehicle: other) was 97 % of control, the T/C (dose: 40.0 mg/kg/injection, schedule: Q01DX001 (ip), vehicle: other) was 105 % of control and the T/C (dose: 50.0 mg/kg/injection, schedule: Q01DX015 (ip), vehicle: other) was 107 % of control. The T/C (dose: 80.0 mg/kg/injection, schedule: Q01DX001 (ip), vehicle: other) was 100 % of control and the T/C (dose: 100.0 mg/kg/injection, schedule: Q01DX001 (ip), vehicle: other) was 104 % of control.
With CO/N=C(\N)Oc1c(C)cccc1C the T/C [1] was 107 % of control, the T/C [2] was 96 % of control and the T/C [3] was 103 % of control.
For NC(=O)Nc1cc(NC(N)=O)cc(N(CCO)CCO)c1, the T/C (dose: 100.0 mg/kg/injection, schedule: Q01DX009 (ip), vehicle: water) was 97 % of control, the T/C (dose: 100.0 mg/kg/injection, schedule: Q04DX003 (ip), vehicle: water) was 102 % of control and the T/C (dose: 200.0 mg/kg/injection, schedule: Q01DX009 (ip), vehicle: water) was 97 % of control. The T/C (dose: 200.0 mg/kg/injection, schedule: Q04DX003 (ip), vehicle: water) was 102 % of control, the T/C (dose: 400.0 mg/kg/injection, schedule: Q01DX009 (ip), vehicle: water) was 103 % of control and the T/C (dose: 400.0 mg/kg/injection, schedule: Q04DX003 (ip), vehicle: water) was 104 % of control.
Cc1cccc(Nc2cc(N)nc(N)n2)c1 was tested, and the T/C (dose: 50.0 mg/kg/injection, schedule: Q01DX Z (ip), vehicle: methylcellulose (MC)) was 96 % of control.
NC(=S)NN=C1CCSCC1 was tested, and the T/C (dose: 8.4 mg/kg/injection, schedule: Q01DX Z (ip), vehicle: methylcellulose (MC)) was 96 % of control, the T/C (dose: 14.0 mg/kg/injection, schedule: Q01DX Z (ip), vehicle: methylcellulose (MC)) was 92 % of control and the T/C (dose: 23.0 mg/kg/injection, schedule: Q01DX Z (ip), vehicle: methylcellulose (MC)) was 98 % of control. The T/C (dose: 39.0 mg/kg/injection, schedule: Q01DX Z (ip), vehicle: methylcellulose (MC)) was 98 % of control.
Cc1n[nH]c(C)c1N=NN1CCOCC1 was tested, and the T/C (dose: 10.0 mg/kg/injection, schedule: Q01DX001 (ip), vehicle: saline) was 100 % of control and 107 % of control, the T/C (dose: 20.0 mg/kg/injection, schedule: Q01DX001 (ip), vehicle: saline) was 107 % of control and 124 % of control and the T/C (dose: 30.0 mg/kg/injection, schedule: Q01DX001 (ip), vehicle: saline) was 105 % of control.
With O=C1C=CC(=O)N1CN1CCOCC1 the T/C (dose: 3.12 mg/kg/injection, schedule: Q01DX009 (ip), vehicle: saline with Tween-80) was 96 % of control, the T/C (dose: 6.25 mg/kg/injection, schedule: Q01DX009 (ip), vehicle: saline with Tween-80) was 96 % of control and the T/C (dose: 12.5 mg/kg/injection, schedule: Q01DX009 (ip), vehicle: saline with Tween-80) was 93 % of control.
In the case of COc1ccccc1/C=N\NC(=O)CCCC(=O)N/N=C/c1ccccc1OC, the T/C (dose: 50.0 mg/kg/injection, schedule: Q01DX001 (ip), vehicle: saline) is reported as 95 % of control, the T/C [4] is reported as 95 % of control and the T/C [5] is reported as 90 % of control.
NC(=O)c1cc([N+](=O)[O-])ccc1N1CC[N+](CCCl)=N1 was tested, and the T/C (dose: 100.0 mg/kg/injection, schedule: Q01DX001 (ip), vehicle: saline with Tween-80) was 100 % of control, the T/C (dose: 200.0 mg/kg/injection, schedule: Q01DX001 (ip), vehicle: saline with Tween-80) was 91 % of control and the T/C (dose: 400.0 mg/kg/injection, schedule: Q01DX001 (ip), vehicle: saline with Tween-80) was 90 % of control.
For CCc1ccc(/C(C#N)=C/c2cccc3ccccc23)cc1, the T/C (dose: 100.0 mg/kg/injection, schedule: Q04DX002 (ip), vehicle: alcohol) was 97 % of control, the T/C (dose: 200.0 mg/kg/injection, schedule: Q04DX002 (ip), vehicle: alcohol) was 105 % of control and the T/C (dose: 400.0 mg/kg/injection, schedule: Q04DX002 (ip), vehicle: alcohol) was 91 % of control.
C#CCN(CC#C)CC#C was tested, and the T/C [6] was 103 % of control and the T/C [7] was 94 % of control.
In the case of NC=O, the T/C (dose: 62.5 mg/kg/injection, schedule: Q01DX009 (ip), vehicle: saline) is reported as 112 % of control, the T/C (dose: 62.5 mg/kg/injection, schedule: Q01DX015 (ip), vehicle: saline) is reported as 95 % of control and the T/C [8] is reported as 94 % of control and 109 % of control. The T/C (dose: 125.0 mg/kg/injection, schedule: Q01DX009 (ip), vehicle: saline) was 107 % of control, the T/C (dose: 125.0 mg/kg/injection, schedule: Q01DX015 (ip), vehicle: saline) was 101 % of control and the T/C [4] was 101 % of control and 92 % of control. The T/C (dose: 250.0 mg/kg/injection, schedule: Q01DX009 (ip), vehicle: saline) was 118 % of control, the T/C (dose: 250.0 mg/kg/injection, schedule: Q01DX015 (ip), vehicle: saline) was 110 % of control and the T/C [5] was 100 % of control and 101 % of control. The T/C (dose: 500.0 mg/kg/injection, schedule: Q01DX015 (ip), vehicle: saline) was 92 % of control and the T/C (dose: 800.0 mg/kg/injection, schedule: Q01DX001 (ip), vehicle: saline) was 106 % of control.
CCCC[As](=O)(O)CCCc1ccccc1 was tested, and the T/C (dose: 0.78 mg/kg/injection, schedule: Q01DX009 (ip), vehicle: saline) was 97 % of control, the T/C (dose: 1.56 mg/kg/injection, schedule: Q01DX009 (ip), vehicle: saline) was 100 % of control and the T/C (dose: 3.13 mg/kg/injection, schedule: Q01DX009 (ip), vehicle: saline) was 103 % of control.
In the case of O=S(=O)(c1ccc(Cl)cc1)C1CCCC1Cl (stereo not given), the T/C [8] is reported as 110 % of control, the T/C [4] is reported as 109 % of control and the T/C [5] is reported as 100 % of control.
For Nc1nc(N)c(N=O)c(Nc2ccc(Br)cc2)n1, the T/C (dose: 60.0 mg/kg/injection, schedule: Q01DX Z (ip), vehicle: methylcellulose (MC)) was 108 % of control and the T/C (dose: 120.0 mg/kg/injection, schedule: Q01DX Z (ip), vehicle: methylcellulose (MC)) was 103 % of control.
In the case of CNC(=O)CCCOC(=O)c1ccc([N+](=O)[O-])cc1, the T/C (dose: 25.0 mg/kg/injection, schedule: Q04DX002 (ip), vehicle: Klucel (hydroxypropylcellulose) (HPC)) is reported as 108 % of control, the T/C (dose: 50.0 mg/kg/injection, schedule: Q04DX002 (ip), vehicle: Klucel (hydroxypropylcellulose) (HPC)) is reported as 108 % of control and the T/C (dose: 100.0 mg/kg/injection, schedule: Q04DX002 (ip), vehicle: Klucel (hydroxypropylcellulose) (HPC)) is reported as 104 % of control.
Cn1cnc([N+](=O)[O-])c1Sc1c[nH]c(=O)[nH]c1=O was tested, and the T/C [6] was 107 % of control, the T/C [7] was 96 % of control and the T/C (dose: 100.0 mg/kg/injection, schedule: Q04DX003 (ip), vehicle: saline) was 104 % of control. For the same compound, the T/C (dose: 200.0 mg/kg/injection, schedule: Q04DX003 (ip), vehicle: saline) was 93 % of control and the T/C (dose: 400.0 mg/kg/injection, schedule: Q04DX003 (ip), vehicle: saline) was 94 % of control.
With CCOc1cc(/C=N\N=C\c2ccc(O)c(OCC)c2)ccc1O the T/C [1] was 93 % of control, the T/C [2] was 94 % of control and the T/C [3] was 88 % of control.
For CC(Cl)CNC(=O)N(CC(C)Cl)N=O (stereo not given), the T/C (dose: 8.0 mg/kg/injection, schedule: Q01DX001 (ip), vehicle: carboxymethylcellulose (CMC)) was 108 % of control, the T/C (dose: 16.0 mg/kg/injection, schedule: Q01DX001 (ip), vehicle: carboxymethylcellulose (CMC)) was 101 % of control and the T/C (dose: 31.0 mg/kg/injection, schedule: Q01DX001 (ip), vehicle: carboxymethylcellulose (CMC)) was 97 % of control. The T/C (dose: 62.0 mg/kg/injection, schedule: Q01DX001 (ip), vehicle: carboxymethylcellulose (CMC)) was 100 % of control, the T/C (dose: 125.0 mg/kg/injection, schedule: Q01DX001 (ip), vehicle: carboxymethylcellulose (CMC)) was 97 % of control and the T/C (dose: 250.0 mg/kg/injection, schedule: Q01DX001 (ip), vehicle: carboxymethylcellulose (CMC)) was 101 % of control. For the same compound, the T/C (dose: 375.0 mg/kg/injection, schedule: Q01DX001 (ip), vehicle: carboxymethylcellulose (CMC)) was 103 % of control, the T/C (dose: 500.0 mg/kg/injection, schedule: Q01DX001 (ip), vehicle: carboxymethylcellulose (CMC)) was 122 % of control and the T/C (dose: 750.0 mg/kg/injection, schedule: Q01DX001 (ip), vehicle: carboxymethylcellulose (CMC)) was 197 % of control. The T/C (dose: 1000.0 mg/kg/injection, schedule: Q01DX001 (ip), vehicle: carboxymethylcellulose (CMC)) was 240 % of control.
O=[N+]([O-])c1ccc(Cl)cc1/C=N/Nc1c2ccccc2nc2ccccc12 was tested, and the T/C [8] was 92 % of control.
